# According to patent US20070232563A1, “Method for Enhancing Biological Activity and/or Expanding Suitable Region for Biological Activity of Living Body Contacting with Aqueous Environment” (Kabushiki Kaisha Hayashibara Seibutsu Kagaku Kenky, priority 2004, published 2007):
# Experiments:
# unpolished rice = assay: Germination of unpolished rice in aqueous mineral solution; format: in vivo
# Protocol: Suitable mineral range of aqueous mineral solutions containing saccharides was examined by using unpolished rice as an agricultural product. In detail, a commercialized purified salt as a mineral was dissolved in tap water to give a final concentration of 0.5, 1.0, 1.5, or 2.0 as described in the following Table 6. α,α-Trehalose or α-maltosyl α,α-trehalose was dissolved in the resulting solutions to give a final concentration of 1 w/v %, on a dry solid basis. Absorbent cotton was allowed to absorb the resulting solution in an appropriate amount and placed in a plastic laboratory dish with a cover. Commercialized unpolished rice grains were placed on the cotton in the dish by 20 grains per group and kept at ambient temperature (25° C.) under a light-shaded condition by covering with a black cloth. As controls, an aqueous mineral solution without saccharides, and water without saccharides and minerals were prepared. […] Effective concentration of α,α-trehalose or α-maltosyl α,α-trehalose on expanding suitable region for biological activity of unpolished rice grains were determined by examining the number of germinated unpolished rice grains and germination time as an index in accordance with the method in Experiment 6 in the aqueous mineral solution with mineral concentration of 1.5 w/v %, where α,α-trehalose or α-maltosyl α,α-trehalose was effective in Experiment 6, containing α,α-trehalose or α-maltosyl α,α-trehalose in a concentration of 0.01, 0.1, 1, 2, 3, 4 or 6 w/v %, on a dry solid basis. As a control, water without saccharides or minerals was used.
# [1] = system: short-necked clam (Ruditapes philippinarum); assay: Biological activity of short-necked clam (aqueduct extension score) in aqueous mineral solutions; format: in vivo; settings: for Judgment score of biological activity: Experiment 2; for Judgment score for biological activity: total of 18 clams, 16 h
# Protocol: Suitable region for biological activity of short-necked clam (Ruditapes philippinarum), as a fish or shellfish living in seawater, was examined by adding various saccharides to mineral aqueous solutions with various concentrations. In detail, solar salt (85% by weight of sodium chloride and 15% by weight of magnesium) as minerals was dissolved in running water kept in a container for two days to give final concentrations described in the following Table 1. Saccharide (any one of D-glucose, maltose, sucrose, maltitol, α,α-trehalose, α-maltosyl α,α-trehalose, maltotetraose and cyclic tetrasaccharide) was dissolved in the resulting salt solutions to give a final concentration of 1 w/v %, on a dry solid basis. Each of the resulting solutions was placed in a plastic bat. Eighteen pre-selected active short-necked clam in one group were placed in the bat. The bat was shaded with a black cloth and left at ambient temperature (18° C.) for 16 hours. As a control, an aqueous solar salt solution without any saccharides was prepared. Saccharides except for α-maltosyl α,α-trehalose as a saccharide derivatives thereof and cyclic tetrasaccharide were chosen from commercialized products. α-Maltosyl α,α-trehalose as saccharide derivatives of α,α-trehalose in a powder form with a purity of 98 w/w % or over was prepared by the method disclosed in Experiment 4 in Japanese Patent Kokai No. 143876/1995. Cyclic tetrasaccharide in a crystalline form with a purity of 98 w/w % or over, on a dry solid basis, was prepared by the method disclosed in Example A-7 in International Patent Publication No. WO02/10361. Influence of various saccharides was judged by observing the degree of extending aqueduct of the shellfish; 3 points: its aqueduct is well extended; 2 points: its aqueduct is slightly extended; 1 point: its aqueduct is not extended but its shells are opened; 0 point: its shells are closed. The effect on biological activity was judged by the total point of 18 shellfishes. To investigate the effective concentration range of α,α-trehalose or α-maltosyl α,α-trehalose against a mineral solution with a concentration of 1.5 w/v % or 4.5 w/v %, where α,α-trehalose or α-maltosyl α,α-trehalose was remarkably effective in Experiment 1, the following experiment using α,α-trehalose or α-maltosyl α,α-trehalose at a concentration of 0.01, 0.1, 1, 2, 3 or 4 w/v % was carried out according to the method in Experiment 1. As a control, mineral aqueous solutions with a concentration of 1.5 w/v % or 4.5 w/v % without any of the saccharides were prepared and carried out in the same manner.
# [2] = mineral 1.5 w/v %, saccharide 1 w/v %
# [3] = mineral 4.5 w/v %, saccharide 1 w/v %
compound,measurement,setting,value
"OC[C@H]1O[C@H](O[C@H]2O[C@H](CO)[C@@H](O)[C@H](O)[C@H]2O)[C@H](O)[C@@H](O)[C@@H]1O [α,α-Trehalose, α,α-trehalose]",Germinated grains (Number),"unpolished rice; Experiment 7, mineral 1.5 w/v %, saccharide 0.01 w/v %, 48 hours",0
same,Germinated grains (Number),"unpolished rice; Experiment 7, mineral 1.5 w/v %, saccharide 0.01 w/v %, 72 hours",1
same,Germinated grains (Number),"unpolished rice; Experiment 7, mineral 1.5 w/v %, saccharide 0.01 w/v %, 96 hours",2
same,Germinated grains (Number),"unpolished rice; Experiment 7, mineral 1.5 w/v %, saccharide 0.01 w/v %, 120 hours",3
same,Germinated grains (Number),"unpolished rice; Experiment 7, mineral 1.5 w/v %, saccharide 0.1 w/v %, 48 hours",0
same,Germinated grains (Number),"unpolished rice; Experiment 7, mineral 1.5 w/v %, saccharide 0.1 w/v %, 72 hours",2
same,Germinated grains (Number),"unpolished rice; Experiment 7, mineral 1.5 w/v %, saccharide 0.1 w/v %, 96 hours",5
same,Germinated grains (Number),"unpolished rice; Experiment 7, mineral 1.5 w/v %, saccharide 0.1 w/v %, 120 hours",6
same,Germinated grains (Number),"unpolished rice; Experiment 7, mineral 1.5 w/v %, saccharide 1 w/v %, 48 hours",1
same,Germinated grains (Number),"unpolished rice; Experiment 7, mineral 1.5 w/v %, saccharide 1 w/v %, 72 hours",4
same,Germinated grains (Number),"unpolished rice; Experiment 7, mineral 1.5 w/v %, saccharide 1 w/v %, 96 hours",6
same,Germinated grains (Number),"unpolished rice; Experiment 7, mineral 1.5 w/v %, saccharide 1 w/v %, 120 hours",6
same,Germinated grains (Number),"unpolished rice; Experiment 7, mineral 1.5 w/v %, saccharide 2 w/v %, 48 hours",3
same,Germinated grains (Number),"unpolished rice; Experiment 7, mineral 1.5 w/v %, saccharide 2 w/v %, 72 hours",6
same,Germinated grains (Number),"unpolished rice; Experiment 7, mineral 1.5 w/v %, saccharide 2 w/v %, 96 hours",7
same,Germinated grains (Number),"unpolished rice; Experiment 7, mineral 1.5 w/v %, saccharide 2 w/v %, 120 hours",7
same,Germinated grains (Number),"unpolished rice; Experiment 7, mineral 1.5 w/v %, saccharide 3 w/v %, 48 hours",3
same,Germinated grains (Number),"unpolished rice; Experiment 7, mineral 1.5 w/v %, saccharide 3 w/v %, 72 hours",6
same,Germinated grains (Number),"unpolished rice; Experiment 7, mineral 1.5 w/v %, saccharide 3 w/v %, 96 hours",6
same,Germinated grains (Number),"unpolished rice; Experiment 7, mineral 1.5 w/v %, saccharide 3 w/v %, 120 hours",6
same,Germinated grains (Number),"unpolished rice; Experiment 7, mineral 1.5 w/v %, saccharide 4 w/v %, 48 hours",1
same,Germinated grains (Number),"unpolished rice; Experiment 7, mineral 1.5 w/v %, saccharide 4 w/v %, 72 hours",6
same,Germinated grains (Number),"unpolished rice; Experiment 7, mineral 1.5 w/v %, saccharide 4 w/v %, 96 hours",6
same,Germinated grains (Number),"unpolished rice; Experiment 7, mineral 1.5 w/v %, saccharide 4 w/v %, 120 hours",6
same,Germinated grains (Number),"unpolished rice; Experiment 7, mineral 1.5 w/v %, saccharide 6 w/v %, 48 hours",0
same,Germinated grains (Number),"unpolished rice; Experiment 7, mineral 1.5 w/v %, saccharide 6 w/v %, 72 hours",2
same,Germinated grains (Number),"unpolished rice; Experiment 7, mineral 1.5 w/v %, saccharide 6 w/v %, 96 hours",2
same,Germinated grains (Number),"unpolished rice; Experiment 7, mineral 1.5 w/v %, saccharide 6 w/v %, 120 hours",2
same,Germinated grains (Number),"unpolished rice; mineral 0.5 w/v %, saccharide 1 w/v %, 24 hours, 20 grains",0
same,Germinated grains (Number),"unpolished rice; mineral 0.5 w/v %, saccharide 1 w/v %, 48 hours, 20 grains",20
same,Germinated grains (Number),"unpolished rice; mineral 0.5 w/v %, saccharide 1 w/v %, 72 hours, 20 grains",20
same,Germinated grains (Number),"unpolished rice; mineral 0.5 w/v %, saccharide 1 w/v %, 96 hours, 20 grains",20
same,Germinated grains (Number),"unpolished rice; mineral 0.5 w/v %, saccharide 1 w/v %, 120 hours, 20 grains",20
same,Germinated grains (Number),"unpolished rice; mineral 1.0 w/v %, saccharide 1 w/v %, 24 hours, 20 grains",0
same,Germinated grains (Number),"unpolished rice; mineral 1.0 w/v %, saccharide 1 w/v %, 48 hours, 20 grains",17
same,Germinated grains (Number),"unpolished rice; mineral 1.0 w/v %, saccharide 1 w/v %, 72 hours, 20 grains",20
same,Germinated grains (Number),"unpolished rice; mineral 1.0 w/v %, saccharide 1 w/v %, 96 hours, 20 grains",20
same,Germinated grains (Number),"unpolished rice; mineral 1.0 w/v %, saccharide 1 w/v %, 120 hours, 20 grains",20
same,Germinated grains (Number),"unpolished rice; mineral 1.5 w/v %, saccharide 1 w/v %, 24 hours, 20 grains",0
same,Germinated grains (Number),"unpolished rice; mineral 1.5 w/v %, saccharide 1 w/v %, 48 hours, 20 grains",1
same,Germinated grains (Number),"unpolished rice; mineral 1.5 w/v %, saccharide 1 w/v %, 72 hours, 20 grains",4
same,Germinated grains (Number),"unpolished rice; mineral 1.5 w/v %, saccharide 1 w/v %, 96 hours, 20 grains",6
same,Germinated grains (Number),"unpolished rice; mineral 1.5 w/v %, saccharide 1 w/v %, 120 hours, 20 grains",6
same,Germinated grains (Number),"unpolished rice; mineral 2.0 w/v %, saccharide 1 w/v %, 24 hours, 20 grains",0
same,Germinated grains (Number),"unpolished rice; mineral 2.0 w/v %, saccharide 1 w/v %, 48 hours, 20 grains",0
same,Germinated grains (Number),"unpolished rice; mineral 2.0 w/v %, saccharide 1 w/v %, 72 hours, 20 grains",0
same,Germinated grains (Number),"unpolished rice; mineral 2.0 w/v %, saccharide 1 w/v %, 96 hours, 20 grains",0
same,Germinated grains (Number),"unpolished rice; mineral 2.0 w/v %, saccharide 1 w/v %, 120 hours, 20 grains",0
same,Judgment score of biological activity,"[1]; mineral 1.5 w/v %, saccharide 0.01 w/v %",19
same,Judgment score of biological activity,"[1]; mineral 1.5 w/v %, saccharide 0.1 w/v %",38
same,Judgment score of biological activity,[1]; [2],44
same,Judgment score of biological activity,"[1]; mineral 1.5 w/v %, saccharide 2 w/v %",47
same,Judgment score of biological activity,"[1]; mineral 1.5 w/v %, saccharide 3 w/v %",38
same,Judgment score of biological activity,"[1]; mineral 1.5 w/v %, saccharide 4 w/v %",21
same,Judgment score of biological activity,"[1]; mineral 4.5 w/v %, saccharide 0.01 w/v %",21
same,Judgment score of biological activity,"[1]; mineral 4.5 w/v %, saccharide 0.1 w/v %",35
same,Judgment score of biological activity,[1]; [3],50
same,Judgment score of biological activity,"[1]; mineral 4.5 w/v %, saccharide 2 w/v %",51
same,Judgment score of biological activity,"[1]; mineral 4.5 w/v %, saccharide 3 w/v %",31
same,Judgment score of biological activity,"[1]; mineral 4.5 w/v %, saccharide 4 w/v %",18
same,Judgment score for biological activity,"[1]; mineral 0 w/v %, saccharide 1 w/v %",12
same,Judgment score for biological activity,"[1]; mineral 0.5 w/v %, saccharide 1 w/v %",16
same,Judgment score for biological activity,"[1]; mineral 1.0 w/v %, saccharide 1 w/v %",38
same,Judgment score for biological activity,[1]; [2],44
same,Judgment score for biological activity,"[1]; mineral 2.0 w/v %, saccharide 1 w/v %",47
same,Judgment score for biological activity,"[1]; mineral 2.5 w/v %, saccharide 1 w/v %",51
same,Judgment score for biological activity,"[1]; mineral 3.0 w/v %, saccharide 1 w/v %",54
same,Judgment score for biological activity,"[1]; mineral 3.5 w/v %, saccharide 1 w/v %",50
same,Judgment score for biological activity,"[1]; mineral 4.0 w/v %, saccharide 1 w/v %",50
same,Judgment score for biological activity,[1]; [3],49
same,Judgment score for biological activity,"[1]; mineral 5.0 w/v %, saccharide 1 w/v %",34
same,Judgment score for biological activity,"[1]; mineral 5.5 w/v %, saccharide 1 w/v %",10
same,Judgment score for biological activity,"[1]; mineral 6.0 w/v %, saccharide 1 w/v %",5
